Test results reported in US9938335B2, “Glucagon and GLP-1 co-agonist compounds” (Eli Lilly and Company, priority 2015, dated 2018).
≈ marks a conversion by molar mass, not a printed value. Read-outs that look alike come from different tables or passages of the source. Marks after values point to notes of the source that are not given here.

Legend:
[1] = Solubility (RP-HPLC and HPLC-SEC, 1 week at 4° C.); assay type: physicochemical; details: for HMW species formation by SEC-HPLC: 1 week at 4° C.; for visible precipitation or phase separation: after 1 week storage at 4° C.
Description: Solubility of compounds of the present invention is measured in an Agilent 1100 HPLC, an Agilent 1200 HPLC and a Nanodrop 2000. The following HPLC columns are used:
(a) RP-HPLC: Waters Symmetry Shield C18, 3.6 um, 4.6×100 mm
(b) HPLC-SEC: Tosoh Biosciences, TSK2000SWXL […]
All peptide concentrations are made at 10 mg/mL in the following:
(a) 10 mM Tris pH 8.0+3 mg/mL m-cresol
(b) 10 mM Tris pH 8.0+3 mg/mL m-cresol+150 mM NaCl
(c) 10 mM Tris pH 8.0+3 mg/mL m-cresol+0.02% Tween-20
5 mL of 10 mg/mL peptide dissolved in 10 mM Tris at pH 8.0 is concentrated to approximately 20 mg/mL using Amicon-ultra 3 kDa MWCO devices. The solution is filtered using Millivex 0.22 μM filters (PVDF membrane) and the final concentration is measured by the NanoDrop spectrometer. This stock solution is used to formulate to the final conditions stated above using 3× m-cresol, 10× NaCl, and 100× Tween-20 stock solutions. A 10 mg/mL PBS solution is also prepared by dissolving directly at 5 mg/mL and concentrating using Amicon-ultra 3 kDa MWCO devices.
Each solution is placed in a refrigerator at 4° C. for 1 week, with analysis by RP-HPLC to assess concentration and HPLC-SEC to assess HMW species formation. Analyses completed at T-0 week and T-1 week.
The solubility of Compounds 1-4 was measured essentially as described in this assay.

hGcg-R = hGcg-R (Homo sapiens, UniProt P47871); assay: hGcg-R Binding Assay (SPA radioligand competition, 293HEK membranes); details: read-out: Ki, nM ± SEM at the hGcg-R
Sequence of hGcg-R (P47871 26-477): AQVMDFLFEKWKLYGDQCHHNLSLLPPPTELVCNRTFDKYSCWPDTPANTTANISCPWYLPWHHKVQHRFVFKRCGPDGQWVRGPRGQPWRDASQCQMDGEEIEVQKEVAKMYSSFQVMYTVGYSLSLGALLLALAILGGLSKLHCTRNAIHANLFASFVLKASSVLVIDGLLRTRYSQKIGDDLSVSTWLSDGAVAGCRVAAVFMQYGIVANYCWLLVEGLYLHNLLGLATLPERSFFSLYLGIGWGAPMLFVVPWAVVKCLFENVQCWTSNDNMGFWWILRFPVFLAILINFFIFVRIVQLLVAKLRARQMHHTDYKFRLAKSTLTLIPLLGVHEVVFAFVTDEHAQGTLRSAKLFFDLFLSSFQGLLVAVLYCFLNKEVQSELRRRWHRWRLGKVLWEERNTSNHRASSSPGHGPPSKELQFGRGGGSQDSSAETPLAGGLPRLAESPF

Human Gcg-R = target: T1, Human Gcg-R (Homo sapiens, UniProt P47871); assay: Functional hGcg-R assay (cAMP HTRF, HEK-293 clonal cell line); assay type: cell-based; details: for EC50: cAMP, 60 minute incubation, 0.25% FBS, 0.05% BSA, geometric mean, read-out: Human Gcg-R EC50, nM ± SEM, (n)
T1 construct: expressed in transfected cells; host or cells: HEK-293 clonal cell line over-expressing the receptor
T1 sequence (P47871 26-477): as above
Description: (§1) After a 60 minute incubation at room temperature, the resulting increase in intracellular cAMP (adenosine 3′,5′-cyclic monophosphate) is quantitatively determined using the CisBio cAMP Dynamic 2 HTRF Assay Kit (62AM4PEJ). cAMP levels within the cell are detected by adding the cAMP-d2 conjugate in cell lysis buffer (20 μl) followed by the antibody anti-cAMP-Eu^3+-Cryptate, also in cell lysis buffer (20 μl).
(§2) A relative EC50 value and percent top (Emax) are derived by non-linear regression analysis using the percent maximal response vs. the concentration of peptide added, fitted to a four-parameter logistic equation (Genedata Screener®).
(§3) Means for EC50 are expressed as Geometric means±standard error of the mean (SEM) with the number of replicates (n) indicated in parenthesis. Means for Emax are expressed as the arithmetic mean±standard error. ND signifies that agonist activity was not detected.

DIO mice (C57BL/6) [2] = assay: Glycemic control in DIO mice; assay type: in vivo, mouse; details: for 44 hours Glucose AUC (% of Vehicle): OGTT 44 hours post-injection; for 44 hours Glucose AUC (% of Vehicle) / 78 hours Glucose AUC (% of Vehicle): 25 nmol/kg sc; for 78 hours Glucose AUC (% of Vehicle): OGTT 78 hours post-injection; for glucose excursions post an oral glucose challenge: OGTTs at 44 and 78 hours post injection, 25 nmol/kg; for Blood glucose (mg/dL) post-injection, Mean: male DIO mice, 25 nmol/kg sc once
Description: Five to six months old male DIO mice (C57BL/6) from Taconic Biosciences are used in this study. Animals are individually housed in a temperature-controlled (24° C.) facility with a 12 hour light/dark cycle (lights on 6:00), and free access to food and water. After two weeks acclimation to the facility, the mice are randomized to treatment groups (n=7/group) based on their body weight and blood glucose. Mice are injected subcutaneously once with vehicle or compounds (25 nmol/kg). Blood glucose is monitored 2 and 8 hours post-injection and then once a day at 08:00 for 4 days. OGTTs are performed at 44 and 78 hours post the peptide injection. Statistics are analyzed using ANOVA with Dunnett's comparison by JMP 6. Significance is denoted at p≤0.05 vs vehicle.

DIO mice (C57BL/6) [3] = assay: Chronic treatment in DIO mice (body weight, fat, food intake); assay type: in vivo, mouse
Outline: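 C57BL/6 DIO mice aged 5–6 months, individually housed and randomized (N=7/group) on body weight and NMR fat mass, received SC injections on Days 1, 4, 7, 10 and 13. Body weight and food intake were measured before each injection, with fat mass re-measured by NMR at study end. Percent body-weight change was tested by ANOVA/Dunnett vs vehicle (p≤0.05).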

DIO mice (C57BL/6) [4] = assay: Acute treatment in DIO mice (PCSK9, FGF-21, cholesterol); assay type: in vivo, mouse; details: 30 nmol/kg sc, 16 hours post dose
Description: In order to investigate metabolic pathways involved with the treatment of compounds of the present invention independent of weight loss, compounds are tested in DIO mice (C57BL/6) acutely. The mice used are three to four months old on a high fat diet for at least 4 weeks. Animals are individually housed in a temperature-controlled (24° C.) facility with a 12 hour light/dark cycle (lights on 6:00), and free access to food and water. Vehicle or testing compounds were administered to mice by subcutaneous injection at 16:00 the day before the study day. Animals were sacrificed 16 hours later to collect blood via cardia puncture. Statistics are analyzed using ANOVA with Dunnett's comparison for JMP-6. Significance is denoted at p≤0.05 vs vehicle.
Food intake was decreased to a similar level in all treatment groups, which may indicate that changes in cholesterol, PCSK9 and FGF-21 are food-intake independent.

hGLP-1-R [5] = target: T2, hGLP-1-R (Homo sapiens, UniProt P43220); assay: Functional hGLP-1-R assay (cAMP HTRF, HEK-293 clonal cell line); assay type: cell-based; parameters: expressed in transfected cells; host or cells: HEK-293 clonal cell line over-expressing the receptor; details: for Emax: HEK293; for EC50: cAMP, 60 minute incubation, 0.25% FBS, 0.05% BSA, geometric mean, read-out: Human GLP-1-R EC50, nM ± SEM (n)
T2 sequence (P43220 24-463): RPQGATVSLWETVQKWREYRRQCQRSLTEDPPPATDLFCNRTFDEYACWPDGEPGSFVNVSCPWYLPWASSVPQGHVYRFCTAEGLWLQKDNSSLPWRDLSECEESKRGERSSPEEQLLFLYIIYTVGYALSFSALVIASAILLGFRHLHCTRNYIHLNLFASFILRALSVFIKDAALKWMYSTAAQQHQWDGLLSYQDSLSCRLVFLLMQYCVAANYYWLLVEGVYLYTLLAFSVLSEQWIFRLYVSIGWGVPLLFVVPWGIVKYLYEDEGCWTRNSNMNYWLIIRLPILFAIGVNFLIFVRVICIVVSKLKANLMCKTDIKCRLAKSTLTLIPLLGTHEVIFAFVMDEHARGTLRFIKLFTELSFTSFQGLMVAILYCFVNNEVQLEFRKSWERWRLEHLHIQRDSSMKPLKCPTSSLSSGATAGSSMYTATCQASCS
Description: as §1, §2, §3

hGLP-1-R [6] = target: T2, hGLP-1-R; assay: hGLP-1R Binding Assay (SPA radioligand competition, 293HEK membranes); parameters: expressed in transfected cells; host or cells: 293HEK, stably transfected with plasmid phD, Hygromycin-selected; crude plasma membranes; details: read-out: Ki, nM ± SEM at the hGLP-1-R
[7] = 10 mM Tris pH 8.0 + 3 mg/mL m-cresol + 0.02% Tween-20, Tris pH 8 + 3 mg/mL m-cresol + 0.02% Tween-20
[8] = 10 mM Tris pH 8.0 + 3 mg/mL m-cresol + 150 mM NaCl, Tris pH 8 + 3 mg/mL m-cresol + 150 mm NaCl
[9] = 10 mM Tris pH 8.0 + 3 mg/mL m-cresol, Tris pH 8 + 3 mg/mL m-cresol
[10] = PBS pH 7.4, pH 7.4, read-out: solubility in PBS, pH 7.4
[11] = 15 nmol/kg sc every three days for 15 days
[12] = 30 nmol/kg sc every three days for 15 days

| Compound | solubility at 1 week [1, 7] | solubility at 1 week [1, 8] | solubility at 1 week [1, 9] | HMW species formation by SEC-HPLC [1] | solubility at 1 week [1, 10] | visible precipitation or phase separation [1] | Ki (hGcg-R) | EC50 (Human Gcg-R) | 44 hours Glucose AUC (% of Vehicle) (DIO mice (C57BL/6) [2]) | 78 hours Glucose AUC (% of Vehicle) (DIO mice (C57BL/6) [2]) | glucose excursions post an oral glucose challenge (DIO mice (C57BL/6) [2]) | Blood glucose (mg/dL) post-injection, Mean (DIO mice (C57BL/6) [2]; 2 hours post-injection) | Blood glucose (mg/dL) post-injection, Mean (DIO mice (C57BL/6) [2]; 8 hours post-injection) | Blood glucose (mg/dL) post-injection, Mean (DIO mice (C57BL/6) [2]; 24 hours post-injection) | Blood glucose (mg/dL) post-injection, Mean (DIO mice (C57BL/6) [2]; 48 hours post-injection) | Blood glucose (mg/dL) post-injection, Mean (DIO mice (C57BL/6) [2]; 72 hours post-injection) | Blood glucose (mg/dL) post-injection, Mean (DIO mice (C57BL/6) [2]; 96 hours post-injection) | Body Fat (% change vs. vehicle from Day 1) (DIO mice (C57BL/6) [3]; [11]) | Body Weight (% change vs. vehicle from Day 1) (DIO mice (C57BL/6) [3]; [11]) | Body Fat (% change vs. vehicle from Day 1) (DIO mice (C57BL/6) [3]; [12]) | further results |
| --- | --- | --- | --- | --- | --- | --- | --- | --- | --- | --- | --- | --- | --- | --- | --- | --- | --- | --- | --- | --- | --- |
| CC(C)C[C@H](NC(=O)[C@H](CC(C)C)NC(=O)[C@H](Cc1c[nH]c2ccccc12)NC(=O)[C@H](CCC(=O)O)NC(=O)[C@@H](NC(=O)[C@H](Cc1ccccc1)NC(=O)[C@H](CCC(=O)O)NC(=O)[C@H](CCCCNC(=O)COCCOCCNC(=O)COCCOCCNC(=O)CC[C@H](NC(=O)CCCCCCCCCCCCCCCCCCC(=O)O)C(=O)O)NC(=O)[C@H](C)NC(=O)[C@H](CCCCN)NC(=O)[C@H](CCCCN)NC(=O)[C@H](CCC(=O)O)NC(=O)[C@H](CC(=O)O)NC(=O)[C@H](CC(C)C)NC(=O)[C@H](Cc1ccc(O)cc1)NC(=O)[C@H](CCCCN)NC(=O)[C@H](CO)NC(=O)[C@H](Cc1ccc(O)cc1)NC(=O)[C@H](CC(=O)O)NC(=O)[C@H](CO)NC(=O)[C@@H](NC(=O)[C@H](Cc1ccccc1)NC(=O)[C@@H](NC(=O)CNC(=O)[C@H](CCC(N)=O)NC(=O)C(C)(C)NC(=O)[C@@H](N)Cc1c[nH]cn1)[C@@H](C)O)[C@@H](C)O)C(C)C)C(=O)N[C@@H](CCC(=O)O)C(=O)NCC(=O)NCC(=O)N1CCC[C@H]1C(=O)N[C@@H](CO)C(=O)N[C@@H](CO)C(=O)NCC(N)=O [Compound 2] | 10000 µg/mL | 10000 µg/mL | 10000 µg/mL | No observed HMW species formation by SEC-HPLC; | 10000 µg/mL (≈ 2190 µM) | No visible precipitation or phase separation observed after 1 week | 17.7 ± 5 nM | 26.5 ± 2.2 nM | 39* % of Vehicle | 66* % of Vehicle | lower glucose excursions post an oral glucose challenge at both time points | 112.7 mg/dL | 87.4 mg/dL | 101.1 mg/dL | 101.3 mg/dL | 97.6 mg/dL | 115.0 mg/dL | −43* % | −19* % | −70* % | Body Weight (% change vs. vehicle from Day 1) (DIO mice (C57BL/6) [3]; [12]): −33* %; Cholesterol (% of vehicle) (DIO mice (C57BL/6) [4]): 80.6* % of vehicle; FGF-21 (% of vehicle) (DIO mice (C57BL/6) [4]): 465* % of vehicle; PCSK9 (% of vehicle) (DIO mice (C57BL/6) [4]): 12.8* % of vehicle; Emax (hGLP-1-R [5]): 107 ± 7%; EC50 (hGLP-1-R [5]): 83.1 ± 16.8 nM; Ki (hGLP-1-R [6]): 28.6 ± 4.8 nM |
| CC(C)C[C@H](NC(=O)[C@H](CC(C)C)NC(=O)[C@H](Cc1c[nH]c2ccccc12)NC(=O)[C@H](CCC(=O)O)NC(=O)[C@@H](NC(=O)[C@H](Cc1ccccc1)NC(=O)[C@H](CCC(=O)O)NC(=O)[C@H](CCCCNC(=O)COCCOCCNC(=O)COCCOCCNC(=O)CC[C@H](NC(=O)CCCCCCCCCCCCCCCCC(=O)O)C(=O)O)NC(=O)[C@H](C)NC(=O)[C@H](CCCCN)NC(=O)[C@H](CCCCN)NC(=O)[C@H](CCC(=O)O)NC(=O)[C@H](CC(=O)O)NC(=O)[C@H](CC(C)C)NC(=O)[C@H](Cc1ccc(O)cc1)NC(=O)[C@H](CCCCN)NC(=O)[C@H](CO)NC(=O)[C@H](Cc1ccc(O)cc1)NC(=O)[C@H](CC(=O)O)NC(=O)[C@H](CO)NC(=O)[C@@H](NC(=O)[C@H](Cc1ccccc1)NC(=O)[C@@H](NC(=O)CNC(=O)[C@H](CCC(N)=O)NC(=O)C(C)(C)NC(=O)[C@@H](N)Cc1c[nH]cn1)[C@@H](C)O)[C@@H](C)O)C(C)C)C(=O)N[C@@H](CCC(=O)O)C(=O)NCC(=O)NCC(=O)N1CCC[C@H]1C(=O)N[C@@H](CO)C(=O)N[C@@H](CO)C(=O)NCC(N)=O [Compound 1] | 10000 µg/mL | 10000 µg/mL | 10000 µg/mL | No observed HMW species formation by SEC-HPLC; | 10000 µg/mL (≈ 2210 µM) | No visible precipitation or phase separation observed after 1 week | 14.6 ± 4.4 nM | 7.21 ± 1.06 nM | 42* % of Vehicle | 90 % of Vehicle | lower glucose excursions post an oral glucose challenge at 44 hour | 168.5 mg/dL | 79.4 mg/dL | 90.6 mg/dL | 101.9 mg/dL | 113.4 mg/dL | 150.0 mg/dL | −49* % | −19* % | −66* % | Emax (Human Gcg-R; HEK293): 112 ± 3%; Body Weight (% change vs. vehicle from Day 1) (DIO mice (C57BL/6) [3]; [12]): −29* %; Cholesterol (% of vehicle) (DIO mice (C57BL/6) [4]): 60.9* % of vehicle; FGF-21 (% of vehicle) (DIO mice (C57BL/6) [4]): 1770* % of vehicle; PCSK9 (% of vehicle) (DIO mice (C57BL/6) [4]): 14.6* % of vehicle; Emax (hGLP-1-R [5]): 104 ± 7%; EC50 (hGLP-1-R [5]): 23.9 ± 4.5 nM; Ki (hGLP-1-R [6]): 23 ± 5.5 nM |
